What was measured:
[1] = tested on: DU145, human prostate cancer cells implanted in flanks; assay: tissue distribution in SCID mice bearing DU145 tumors; format: in vivo; details: for tissue distribution, blood / tissue distribution, bone / tissue distribution, brain / tissue distribution, heart / tissue distribution, kidney / tissue distribution, liver / tissue distribution, lung / tissue distribution, muscle / tissue distribution, pancreas / tissue distribution, spleen / tissue distribution, tumor: DU145 tumor-bearing SCID mice, tail vein, ave
Procedure: For the in vitro amino acid uptake studies, all cells can be grown to monolayer confluency in T-175 culture flasks [Corning, Corning, N.Y.] (approx. 1×10^8 cells/flask) in Dulbecco's Modified Eagle's Medium (DMEM) [Sigma, St. Louis, Mo.] in a humidified incubator (37° C., 5% CO2/95% air). Media are supplemented with 10% fetal calf serum [Hyclone, Logan, Utah], and antibiotics (10,000 U/ml penicillin and 10 mg/ml streptomycin) (Sigma, St. Louis, Mo.). For tissue culture passage, monolayer cells are detached by gentle trypsinization, resuspended in complete media, and split 1:10 into new T-flasks. Cultures are passaged weekly, and fed fresh media every 2 to 3 days. To initiate tumor growth in SCID mice, 1×10^6 cells are injected s.c. bilaterally into the flanks (inguinal region) of the recipient animals using a 1 ml syringe with a 27 gauge needle. Ex vivo experiments can be performed with animals containing tumors weighing between 500 mg and 1 g, as estimated by caliper measurement (tumor weight=(π/6)*abc, where a, b and c are the tumor length, width and height, respectively).
Tissue distribution of the compounds is measured in SCID mice (average weight, 20-25 g) bearing human tumors as follows. The candidate radioligands (20 uCi in 0.4 ml 0.9% NaCl) are injected into the tail vein of tumor-bearing mice. […] Tissues (blood, heart, liver, lungs, kidneys, bone, thyroid, muscle, brain and tumor) are excised, rinsed in saline, and blotted dry. The tissues are weighed, placed into 12×75 mm glass vials, the radioactivity determined with a gamma counter, and the percent dose/gram calculated. Total activities of blood and muscle are calculated by assuming that they account for 7% and 40% of the total body mass, respectively.
Tables 3-7 show the results of the biodistribution studies with the separate enantiomers of anti-2-[^18F]FACPC and racemic anti-2-[^18F]FACBC as a comparison in SCiD mice implanted in their flanks with A549, human lung cancer cells and DU145, human prostate cancer cells.

[2] = tested on: U87 Human Glioma cells; assay: in vitro amino acid uptake in U87 cells; format: cell-based
Source text: (§1) Compounds have been evaluated in vitro for tumor binding specificity (i.e. uptake cells) using a variety of tumor cell lines available in the art, along with reference compounds such as Me-AlB and BCH. Detailed description of these assays can be found in Martarello et al. (2002) Journal of Medicinal Chemistry, 45:2250-2259 and McConathy et al. (2003) Nuclear Medicine and Biology, 30:477-490. These so called “amino acid uptake studies” are typically carried out with radiolabeled compounds in at least five phenotypically different human tumor cell lines (e.g., A549 lung carcinoma, MB468 breast carcinoma, DU145 prostate carcinoma-androgen independent, LnCap-androgen dependent, SKOV3 ovarian carcinoma, U87 glial blastoma, MIA PaCa-2 pancreas carcinoma, MDA MB231 breast carcinoma). These tumor cell lines can be grown either in vitro or in vivo with severe combined immunodeficiency (SCID) mice as a host. The afore-mentioned tumor cell lines are available at the Winship Cancer Institute of Emory University.
(§2) For the in vitro amino acid uptake studies, all cells can be grown to monolayer confluency in T-175 culture flasks [Corning, Corning, N.Y.] (approx. 1×10^8 cells/flask) in Dulbecco's Modified Eagle's Medium (DMEM) [Sigma, St. Louis, Mo.] in a humidified incubator (37° C., 5% CO2/95% air). […]
(§3) In the in vitro studies the uptake rate of each amino acid compound is measured in each tumor line, as well as the dominant transport mechanisms of each tumor cell line. After trypsinization, cells are resuspended in serum-free media, then counted on a hemocytometer, with viability assessed through Trypan blue staining. […] The vials are placed in a Cobra-II gamma counter (Packard, Meriden, Conn.), with the activity per cell number determined. […] Saline washes are performed as described above, and the filtered cells' radioactivity determined on the gamma counter. […]
(§4) The uptake of all compounds were measured in human and rat cancer cell lines and the dominant transport (“A” and “L”) mechanism of each culture were determined. […]

[3] = tested on: DU145 Human Prostate carcinoma cells; assay: in vitro amino acid uptake in DU145 cells; format: cell-based
Source text: as §1, §2, §3, §4

[4] = tested on: A549 Human Lung adenocarcinoma cells; assay: in vitro amino acid uptake in A549 cells; format: cell-based
Source text: as §1, §2, §3, §4

[5] = tested on: SKOV3 Human Ovarian carcinoma cells; assay: in vitro amino acid uptake in SKOV3 cells; format: cell-based
Source text: as §1, §2, §3, §4

[6] = tested on: MDA MB468 Human Breast carcinoma cells; assay: in vitro amino acid uptake in MDA MB468 cells; format: cell-based
Source text: as §1, §2, §3, §4

NC1(C(=O)O)CCC1[18F] (racemic) [racemic anti-2-[^18F]FACBC]
tissue distribution, blood ([1]; 15 min): 2.80 percent dose/gram | tissue distribution, bone ([1]; 15 min): 1.06 percent dose/gram | tissue distribution, brain ([1]; 15 min): 0.17 percent dose/gram | tissue distribution, heart ([1]; 15 min): 2.07 percent dose/gram | tissue distribution, kidney ([1]; 15 min): 6.82 percent dose/gram | tissue distribution, liver ([1]; 15 min): 2.32 percent dose/gram | tissue distribution, lung ([1]; 15 min): 3.35 percent dose/gram | tissue distribution, muscle ([1]; 15 min): 0.83 percent dose/gram | tissue distribution, pancreas ([1]; 15 min): 29.02 percent dose/gram | tissue distribution, spleen ([1]; 15 min): 4.38 percent dose/gram | tissue distribution, tumor ([1]; 15 min): 2.95 percent dose/gram | tissue distribution, blood ([1]; 30 min): 1.86 percent dose/gram | tissue distribution, bone ([1]; 30 min): 1.63 percent dose/gram | tissue distribution, brain ([1]; 30 min): 0.16 percent dose/gram | tissue distribution, heart ([1]; 30 min): 1.82 percent dose/gram | tissue distribution, kidney ([1]; 30 min): 4.47 percent dose/gram | tissue distribution, liver ([1]; 30 min): 2.09 percent dose/gram | tissue distribution, lung ([1]; 30 min): 2.32 percent dose/gram | tissue distribution, muscle ([1]; 30 min): 1.00 percent dose/gram | tissue distribution, pancreas ([1]; 30 min): 29.29 percent dose/gram | tissue distribution, spleen ([1]; 30 min): 4.74 percent dose/gram | tissue distribution, tumor ([1]; 30 min): 3.54 percent dose/gram | tissue distribution, blood ([1]; 60 min): 0.80 percent dose/gram | tissue distribution, bone ([1]; 60 min): 2.22 percent dose/gram | tissue distribution, brain ([1]; 60 min): 0.18 percent dose/gram | tissue distribution, heart ([1]; 60 min): 1.32 percent dose/gram | tissue distribution, kidney ([1]; 60 min): 1.82 percent dose/gram | tissue distribution, liver ([1]; 60 min): 1.23 percent dose/gram | tissue distribution, lung ([1]; 60 min): 1.18 percent dose/gram | tissue distribution, muscle ([1]; 60 min): 1.15 percent dose/gram | tissue distribution, pancreas ([1]; 60 min): 15.01 percent dose/gram | tissue distribution, spleen ([1]; 60 min): 2.85 percent dose/gram | tissue distribution, tumor ([1]; 60 min): 2.57 percent dose/gram | tissue distribution, blood ([1]; 120 min): 0.39 percent dose/gram | tissue distribution, bone ([1]; 120 min): 0.66 percent dose/gram | tissue distribution, brain ([1]; 120 min): 0.13 percent dose/gram | tissue distribution, heart ([1]; 120 min): 0.82 percent dose/gram | tissue distribution, kidney ([1]; 120 min): 0.78 percent dose/gram | tissue distribution, liver ([1]; 120 min): 0.43 percent dose/gram | tissue distribution, lung ([1]; 120 min): 0.46 percent dose/gram | tissue distribution, muscle ([1]; 120 min): 0.72 percent dose/gram | tissue distribution, pancreas ([1]; 120 min): 5.92 percent dose/gram | tissue distribution, spleen ([1]; 120 min): 0.87 percent dose/gram | tissue distribution, tumor ([1]; 120 min): 1.85 percent dose/gram | uptake of radioactivity in the tumors compared with muscle ([1]; DU145 tumors, SCID mice, time points sampled post injection): greater than muscle | % Dose uptake per 0.5 × 10−6 Cells [2]: 8.3 % Dose/0.5 × 10^−6 | % Dose uptake per 0.5 × 10−6 Cells [3]: 6.4 % Dose/0.5 × 10^−6 | % Dose uptake per 0.5 × 10−6 Cells [4]: 8.9 % Dose/0.5 × 10^−6 | % Dose uptake per 0.5 × 10−6 Cells [5]: 2.2 % Dose/0.5 × 10^−6 | % Dose uptake per 0.5 × 10−6 Cells [6]: 7.4 % Dose/0.5 × 10^−6

N[C@]1(C(=O)O)CCC[C@@H]1[18F] (single isomer, unassigned; enantiomer 1) [Enantiomer 1, anti-2-[^18F]FACPC]
in vivo uptake compared with racemic 2-[^18F]FACBC ([1]; DU 145 cells implanted subcutaneously in flanks of SCID mice): significantly higher in vivo uptake than racemic 2-[^18F]FACBC | tissue distribution, blood ([1]; 15 min): 3.69 percent dose/gram | tissue distribution, bone ([1]; 15 min): 2.89 percent dose/gram | tissue distribution, brain ([1]; 15 min): 0.70 percent dose/gram | tissue distribution, heart ([1]; 15 min): 3.76 percent dose/gram | tissue distribution, kidney ([1]; 15 min): 8.83 percent dose/gram | tissue distribution, liver ([1]; 15 min): 4.34 percent dose/gram | tissue distribution, lung ([1]; 15 min): 4.38 percent dose/gram | tissue distribution, muscle ([1]; 15 min): 2.23 percent dose/gram | tissue distribution, pancreas ([1]; 15 min): 47 percent dose/gram | tissue distribution, spleen ([1]; 15 min): 7.4 percent dose/gram | tissue distribution, tumor ([1]; 15 min): 3.82 percent dose/gram | tissue distribution, blood ([1]; 30 min): 2.44 percent dose/gram | tissue distribution, bone ([1]; 30 min): 3.06 percent dose/gram | tissue distribution, brain ([1]; 30 min): 0.49 percent dose/gram | tissue distribution, heart ([1]; 30 min): 2.71 percent dose/gram | tissue distribution, kidney ([1]; 30 min): 5.36 percent dose/gram | tissue distribution, liver ([1]; 30 min): 2.74 percent dose/gram | tissue distribution, lung ([1]; 30 min): 2.78 percent dose/gram | tissue distribution, muscle ([1]; 30 min): 2.31 percent dose/gram | tissue distribution, pancreas ([1]; 30 min): 28 percent dose/gram | tissue distribution, spleen ([1]; 30 min): 6.70 percent dose/gram | tissue distribution, tumor ([1]; 30 min): 3.54 percent dose/gram | tissue distribution, blood ([1]; 60 min): 1.7 percent dose/gram | tissue distribution, bone ([1]; 60 min): 2.58 percent dose/gram | tissue distribution, brain ([1]; 60 min): 0.62 percent dose/gram | tissue distribution, heart ([1]; 60 min): 2.2 percent dose/gram | tissue distribution, kidney ([1]; 60 min): 4.07 percent dose/gram | tissue distribution, liver ([1]; 60 min): 1.96 percent dose/gram | tissue distribution, lung ([1]; 60 min): 1.91 percent dose/gram | tissue distribution, muscle ([1]; 60 min): 2.15 percent dose/gram | tissue distribution, pancreas ([1]; 60 min): 22 percent dose/gram | tissue distribution, spleen ([1]; 60 min): 2.79 percent dose/gram | tissue distribution, tumor ([1]; 60 min): 3.07 percent dose/gram | % Dose uptake per 0.5 × 10−6 Cells [2]: 28 % Dose/0.5 × 10^−6 | % Dose uptake per 0.5 × 10−6 Cells [3]: 8 % Dose/0.5 × 10^−6 | % Dose uptake per 0.5 × 10−6 Cells [4]: 13 % Dose/0.5 × 10^−6 | % Dose uptake per 0.5 × 10−6 Cells [5]: 7 % Dose/0.5 × 10^−6 | % Dose uptake per 0.5 × 10−6 Cells [6]: 15 % Dose/0.5 × 10^−6

From patent US20130123618A1, “Imaging Agents” (priority 2008, published 2013)
